Source: paper doi:10.1101/2023.04.18.537371v1 (bioRxiv, 2023)
Peptide text beside a SMILES is read from it.

Tests used:
[1] = Tissue distribution in SD rats after single subcutaneous injection; assay type: in vivo, SD rat
[2] = In vitro protein binding, rapid equilibrium dialysis; assay type: in vitro ADME; details: beagle, dog, plasma
[3] = molecular target: T1, CYP2C8 (Homo sapiens, UniProt P10632); assay: CYP450 inhibition assay; assay type: in vitro ADME
T1 sequence (P10632 1-490): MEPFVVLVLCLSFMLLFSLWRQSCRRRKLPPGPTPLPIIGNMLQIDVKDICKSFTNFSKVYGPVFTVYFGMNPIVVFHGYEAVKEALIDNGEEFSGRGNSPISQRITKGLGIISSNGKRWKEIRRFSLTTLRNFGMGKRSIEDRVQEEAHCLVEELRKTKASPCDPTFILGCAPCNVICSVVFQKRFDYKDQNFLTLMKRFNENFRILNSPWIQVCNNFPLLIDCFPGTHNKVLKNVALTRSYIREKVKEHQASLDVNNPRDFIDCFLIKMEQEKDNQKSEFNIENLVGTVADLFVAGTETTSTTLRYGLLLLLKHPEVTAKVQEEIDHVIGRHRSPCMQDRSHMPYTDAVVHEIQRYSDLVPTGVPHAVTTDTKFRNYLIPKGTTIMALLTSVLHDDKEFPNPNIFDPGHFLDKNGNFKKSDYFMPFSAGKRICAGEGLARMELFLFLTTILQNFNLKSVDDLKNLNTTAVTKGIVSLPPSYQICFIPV

[4] = molecular target: MATE1 (Homo sapiens, UniProt Q96FL8); assay: Transporter inhibition in HEK293 cells; assay type: in vitro ADME
Chain of MATE1 (Q96FL8 whole entry): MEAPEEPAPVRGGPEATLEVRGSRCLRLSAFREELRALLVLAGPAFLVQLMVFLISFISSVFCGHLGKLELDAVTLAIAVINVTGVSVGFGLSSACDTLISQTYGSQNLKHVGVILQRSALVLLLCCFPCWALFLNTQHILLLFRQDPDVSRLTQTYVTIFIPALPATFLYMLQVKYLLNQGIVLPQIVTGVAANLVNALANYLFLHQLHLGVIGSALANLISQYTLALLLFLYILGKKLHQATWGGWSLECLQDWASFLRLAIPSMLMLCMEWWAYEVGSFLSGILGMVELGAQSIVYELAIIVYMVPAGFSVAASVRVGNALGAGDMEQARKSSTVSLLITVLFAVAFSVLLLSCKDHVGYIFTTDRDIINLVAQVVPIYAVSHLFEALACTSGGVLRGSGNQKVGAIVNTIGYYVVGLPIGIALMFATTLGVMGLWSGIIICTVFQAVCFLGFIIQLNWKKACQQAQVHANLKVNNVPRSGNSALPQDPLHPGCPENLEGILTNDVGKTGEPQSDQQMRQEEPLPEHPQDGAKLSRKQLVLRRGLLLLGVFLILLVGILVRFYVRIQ

[5] = molecular target: OATP1B3 (Homo sapiens, UniProt Q9NPD5); assay: Transporter inhibition in HEK293 cells; assay type: in vitro ADME
Chain of OATP1B3 (Q9NPD5 whole entry): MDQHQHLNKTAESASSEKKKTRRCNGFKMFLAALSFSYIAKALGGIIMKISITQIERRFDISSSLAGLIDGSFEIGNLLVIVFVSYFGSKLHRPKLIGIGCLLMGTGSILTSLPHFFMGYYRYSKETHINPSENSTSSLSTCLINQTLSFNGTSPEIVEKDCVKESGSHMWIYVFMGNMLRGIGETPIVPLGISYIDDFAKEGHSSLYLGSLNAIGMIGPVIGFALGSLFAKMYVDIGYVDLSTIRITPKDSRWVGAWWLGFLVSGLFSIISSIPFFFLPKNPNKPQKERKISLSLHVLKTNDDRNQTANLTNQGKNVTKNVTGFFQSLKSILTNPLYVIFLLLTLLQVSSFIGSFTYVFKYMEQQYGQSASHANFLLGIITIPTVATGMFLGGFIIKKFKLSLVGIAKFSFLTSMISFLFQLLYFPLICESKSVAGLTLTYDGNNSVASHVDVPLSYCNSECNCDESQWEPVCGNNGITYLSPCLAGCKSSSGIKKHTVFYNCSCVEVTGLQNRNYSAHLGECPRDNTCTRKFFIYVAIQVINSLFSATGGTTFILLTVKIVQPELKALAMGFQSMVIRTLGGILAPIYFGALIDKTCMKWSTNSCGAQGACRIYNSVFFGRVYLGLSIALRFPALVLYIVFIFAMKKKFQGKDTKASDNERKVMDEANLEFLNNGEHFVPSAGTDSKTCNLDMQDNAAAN

[6] = molecular target: CYP2C19 (Homo sapiens, UniProt P33261); assay: CYP450 inhibition assay; assay type: in vitro ADME
Chain of CYP2C19 (P33261 whole entry): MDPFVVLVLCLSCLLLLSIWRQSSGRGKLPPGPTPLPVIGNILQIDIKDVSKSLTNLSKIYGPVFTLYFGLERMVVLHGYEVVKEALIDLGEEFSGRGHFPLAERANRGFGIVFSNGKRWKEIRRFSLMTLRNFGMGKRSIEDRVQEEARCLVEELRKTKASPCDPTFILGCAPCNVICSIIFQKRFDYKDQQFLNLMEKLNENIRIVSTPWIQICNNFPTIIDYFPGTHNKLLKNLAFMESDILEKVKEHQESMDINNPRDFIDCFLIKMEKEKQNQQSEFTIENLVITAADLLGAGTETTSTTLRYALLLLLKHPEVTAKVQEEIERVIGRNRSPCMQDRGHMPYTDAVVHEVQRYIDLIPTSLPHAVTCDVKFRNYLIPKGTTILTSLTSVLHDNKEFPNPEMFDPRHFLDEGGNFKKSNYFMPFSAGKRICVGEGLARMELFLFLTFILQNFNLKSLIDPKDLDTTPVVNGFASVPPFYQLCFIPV

[7] = In vitro blood to plasma partitioning; assay type: in vitro ADME, rat; details: for Mean erythrocyte to plasma ratio KE/P: rat whole blood, 37°C, 60 min
[8] = In vitro protein binding, rapid equilibrium dialysis; assay type: in vitro ADME; details: human, plasma
[9] = molecular target: T2, CYP2B6 (Homo sapiens, UniProt P20813); assay: biochemical; assay type: in vitro ADME
T2 sequence (P20813 1-491): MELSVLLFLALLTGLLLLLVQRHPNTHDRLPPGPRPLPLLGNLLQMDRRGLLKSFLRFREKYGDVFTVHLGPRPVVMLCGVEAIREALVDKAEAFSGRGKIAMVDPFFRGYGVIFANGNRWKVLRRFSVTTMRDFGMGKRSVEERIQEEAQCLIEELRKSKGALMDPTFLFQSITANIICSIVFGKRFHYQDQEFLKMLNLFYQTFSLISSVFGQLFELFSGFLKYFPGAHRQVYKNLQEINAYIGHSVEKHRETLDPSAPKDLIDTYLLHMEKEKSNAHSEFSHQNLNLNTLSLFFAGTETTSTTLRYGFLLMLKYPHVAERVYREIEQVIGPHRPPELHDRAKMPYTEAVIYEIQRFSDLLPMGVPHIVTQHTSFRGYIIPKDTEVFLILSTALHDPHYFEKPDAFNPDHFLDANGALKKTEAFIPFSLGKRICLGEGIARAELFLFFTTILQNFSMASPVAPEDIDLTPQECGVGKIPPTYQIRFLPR

[10] = In vitro blood to plasma partitioning; assay type: in vitro ADME, dog
[11] = kidney, male SD rats, SC 10 mg/kg single
[12] = large intestine, male SD rats, SC 10 mg/kg single
[13] = liver, male SD rats, SC 10 mg/kg single
[14] = lung, male SD rats, SC 10 mg/kg single
[15] = male, SD, rat, fat, sc, 10 mg/kg
[16] = male, SD, rat, heart, sc, 10 mg/kg
[17] = male, SD, rat, kidney, sc, 10 mg/kg
[18] = male, SD, rat, large intestine, sc, 10 mg/kg
[19] = male, SD, rat, liver, sc, 10 mg/kg
[20] = male, SD, rat, lung, sc, 10 mg/kg
[21] = male, SD, rat, muscle, sc, 10 mg/kg
[22] = male, SD, rat, plasma, sc, 10 mg/kg
[23] = male, SD, rat, small intestine, sc, 10 mg/kg
[24] = male, SD, rat, spleen, sc, 10 mg/kg
[25] = male, SD, rat, stomach, sc, 10 mg/kg
[26] = muscle, male SD rats, SC 10 mg/kg single
[27] = small intestine, male SD rats, SC 10 mg/kg single
[28] = spleen, male SD rats, SC 10 mg/kg single
[29] = stomach, male SD rats, SC 10 mg/kg single

Molecule CC(C)[C@@H](NC(=O)[C@H](N)Cc1ccc(O)cc1)C(=O)N[C@H](CC(=O)O)C(=O)N[C@H](CCCCN)C(=O)N[C@H](CCCNC(=N)N)C(=O)O [FC-12738, (D-Tyr)-(D-Val)-(D-Asp)-(D-Lys)-(D-Arg)] (HELM PEPTIDE1{[dY].[dV].[dD].[dK].[dR]}$$$$V2.0) has an AUC0-last [1, 11] of 135000 ng·h/g, a Cmax [1, 11] of 28500 ng/g and a Tmax [1, 11] of 30 min. For the same molecule, the AUC0-last [1, 12] was 4040 ng·h/g, the Cmax [1, 12] was 2150 ng/g and the Tmax [1, 12] was 30 min. For the same molecule, the AUC0-last [1, 13] was 4190 ng·h/g, the Cmax [1, 13] was 1270 ng/g and the Tmax [1, 13] was 30 min. For the same molecule, the AUC0-last [1, 14] was 6840 ng·h/g, the Cmax [1, 14] was 5330 ng/g and the Tmax [1, 14] was 30 min. For the same molecule, the “Tolerability / adverse effects in-life” value ([1]; male SD rats, SC 10 mg/kg single, tissue distribution study) was “No adverse effect was observed”, the tissue level at time at 0.5 h ([1]; male, SD, rat, brain, sc, 10 mg/kg) was 128 ng/g and the tissue level at time at 0.5 h [1, 15] was 1070 ng/g. The tissue level at time at 2 h [1, 15] was 103 ng/g, the tissue level at time at 0.5 h [1, 16] was 2150 ng/g and the tissue level at time at 2 h [1, 16] was 365 ng/g. For the same molecule, the tissue level at time at 0.5 h [1, 17] was 28500 ng/g, the tissue level at time at 2 h [1, 17] was 17300 ng/g and the tissue level at time at 8 h [1, 17] was 14300 ng/g. For the same molecule, the tissue level at time at 0.5 h [1, 18] was 2150 ng/g, the tissue level at time at 2 h [1, 18] was 430 ng/g and the tissue level at time at 8 h [1, 18] was 226 ng/g. For the same molecule, the tissue level at time at 0.5 h [1, 19] was 1270 ng/g, the tissue level at time at 2 h [1, 19] was 616 ng/g and the tissue level at time at 8 h [1, 19] was 269 ng/g. It also gave a tissue level at time at 0.5 h [1, 20] of 5330 ng/g, a tissue level at time at 2 h [1, 20] of 752 ng/g and a tissue level at time at 8 h [1, 20] of 109 ng/g. The tissue level at time at 0.5 h [1, 21] was 1490 ng/g, the tissue level at time at 2 h [1, 21] was 191 ng/g and the tissue level at time at 8 h [1, 21] was 46.4 ng/g. The AUC(0-t) [1, 22] was 14400 ng·h/mL, the Cmax [1, 22] was 14200 ng/mL and the Tmax [1, 22] was 30 min. The level at 0.5 h [1, 22] was 14200 ng/mL, the level at 2 h [1, 22] was 1790 ng/mL and the level at 8 h [1, 22] was 5.04 ng/mL. For the same molecule, the tissue level at time at 0.5 h [1, 23] was 2060 ng/g, the tissue level at time at 2 h [1, 23] was 775 ng/g and the tissue level at time at 8 h [1, 23] was 188 ng/g. For the same molecule, the tissue level at time at 0.5 h [1, 24] was 1490 ng/g, the tissue level at time at 2 h [1, 24] was 345 ng/g and the tissue level at time at 8 h [1, 24] was 239 ng/g. For the same molecule, the tissue level at time at 0.5 h [1, 25] was 3370 ng/g, the tissue level at time at 2 h [1, 25] was 555 ng/g and the tissue level at time at 8 h [1, 25] was 96.7 ng/g. It also gave an AUC0-last [1, 26] of 1930 ng·h/g, a Cmax [1, 26] of 1490 ng/g and a Tmax [1, 26] of 30 min. It also gave an AUC0-last [1, 27] of 4970 ng·h/g, a Cmax [1, 27] of 2060 ng/g and a Tmax [1, 27] of 30 min. It also gave an AUC0-last [1, 28] of 3280 ng·h/g, a Cmax [1, 28] of 1490 ng/g and a Tmax [1, 28] of 30 min. For the same molecule, the AUC0-last [1, 29] was 4760 ng·h/g, the Cmax [1, 29] was 3370 ng/g and the Tmax [1, 29] was 30 min. It also gave a fraction unbound at 6 h, 0.2 µM [2] of 0.492, a fraction unbound at 6 h, 2 µM [2] of 0.461 and a fraction unbound at 6 h, 10 µM [2] of 0.691. The IC50 [3] was over 100 µM, the IC50 [4] was over 100 µM and the IC50 [5] was over 100 µM. The IC50 [6] was over 100 µM, the “Mean erythrocyte to plasma ratio KE/P” value ([7]; 0.200 μM) was under 0.21 and the “Mean erythrocyte to plasma ratio KE/P” value ([7]; 2.00 μM) was under 0.11. The “Mean erythrocyte to plasma ratio KE/P” value ([7]; 10.0 μM) was under 0.03, the tissue to tissue ratio at 1 h, 0.2 µM ([7]; rat, whole blood) was 0.48 and the tissue to tissue ratio at 1 h, 2 µM ([7]; rat, whole blood) was 0.5. The tissue to tissue ratio at 1 h, 10 µM ([7]; rat, whole blood) was 0.47, the fraction unbound at 6 h, 0.2 µM [8] was 0.428 and the fraction unbound at 6 h, 2 µM [8] was 0.47. For the same molecule, the fraction unbound at 6 h, 10 µM [8] was 0.673, the IC50 [9] was over 100 µM and the “Time-dependent inhibition of CYP2B6” value ([9]; cutoff IC50 shift >= 1.5-fold, 30 min pre-incubation ± NADPH) was “no time-dependent inhibition”. The “Mean erythrocyte to plasma ratio KE/P” value ([10]; dog whole blood, 0.200 μM, 37°C, 60 min) was under 0.18, the “Mean erythrocyte to plasma ratio KE/P” value ([10]; dog whole blood, 2.00 μM, 37°C, 60 min) was 0.07 and the “Mean erythrocyte to plasma ratio KE/P” value ([10]; dog whole blood, 10.0 μM, 37°C, 60 min) was under 0.14. The “Mean blood-to-plasma ratio KB/P” value ([10]; dog whole blood, 10.0 μM, 37°C, 60 min, LC-MS/MS) was 0.58, the tissue to tissue ratio at 1 h, 0.2 µM ([10]; dog, whole blood) was 0.57 and the tissue to tissue ratio at 1 h, 2 µM ([10]; dog, whole blood) was 0.55.
